{"source": "patent US9993570B2", "about": "“Radiolabeled tracers for poly (ADP-ribose) polymerase-1 (PARP-1), methods and uses therefor” (Washington University, priority 2014, dated 2018)", "key": {"PARP-1": {"target": "PARP-1 (Homo sapiens, UniProt P09874)", "sequence (P09874 whole entry)": "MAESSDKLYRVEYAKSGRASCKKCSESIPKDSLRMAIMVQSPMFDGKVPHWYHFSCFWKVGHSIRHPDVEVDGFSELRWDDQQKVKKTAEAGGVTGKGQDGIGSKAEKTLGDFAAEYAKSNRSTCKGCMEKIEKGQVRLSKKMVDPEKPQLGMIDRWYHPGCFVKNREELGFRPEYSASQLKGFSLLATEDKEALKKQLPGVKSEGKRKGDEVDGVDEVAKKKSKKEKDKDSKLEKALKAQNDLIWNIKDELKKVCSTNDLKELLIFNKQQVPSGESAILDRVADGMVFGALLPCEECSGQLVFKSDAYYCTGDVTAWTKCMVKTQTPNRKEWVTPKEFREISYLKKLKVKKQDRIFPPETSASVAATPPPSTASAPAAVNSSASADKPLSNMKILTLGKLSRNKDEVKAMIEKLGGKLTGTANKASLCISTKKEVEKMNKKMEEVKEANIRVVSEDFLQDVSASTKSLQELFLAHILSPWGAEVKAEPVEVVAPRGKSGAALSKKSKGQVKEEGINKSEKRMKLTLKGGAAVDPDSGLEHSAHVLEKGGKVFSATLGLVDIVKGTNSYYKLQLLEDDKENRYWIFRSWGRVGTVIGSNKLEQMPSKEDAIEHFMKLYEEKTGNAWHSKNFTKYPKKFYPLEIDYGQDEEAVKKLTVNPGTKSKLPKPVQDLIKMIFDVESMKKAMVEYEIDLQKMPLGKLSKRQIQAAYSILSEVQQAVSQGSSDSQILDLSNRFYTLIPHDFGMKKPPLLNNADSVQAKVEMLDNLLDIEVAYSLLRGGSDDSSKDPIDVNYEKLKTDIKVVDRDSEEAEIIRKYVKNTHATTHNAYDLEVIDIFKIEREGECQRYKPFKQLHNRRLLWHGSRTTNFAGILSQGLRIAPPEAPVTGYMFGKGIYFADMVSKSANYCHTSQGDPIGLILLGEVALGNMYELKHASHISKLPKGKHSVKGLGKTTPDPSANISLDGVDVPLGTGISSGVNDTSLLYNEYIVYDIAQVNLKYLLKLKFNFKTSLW", "assay": "PARP-1 enzymatic activity assay (chemical quantification of NAD+)", "excerpt": "This assay is based on the chemical quantification of NAD^+, i.e. the amount of NAD^+ consumed when the active PARP-1 C-terminal catalytic domain sequentially transfers ADP-ribose subunits from nicotinamide adenine dinucleotide (NAD^+) to protein acceptors.^7\nHigh-specific-activity PARP-1 and activated DNA were purchased from Trevigen (Gaithersburg, Md.). All other reagents required for this assay including NAD^+ were purchased from Sigma-Aldrich (St. Louis, Mo.). Known PARP-1 inhibitor PJ-34, used as a control in these experiments, was synthesized in-house. […] A solution of 50 μg/mL of activated DNA was made in PARP assay buffer and 10 μL was added to each well. Stock solutions of test compounds were first prepared in DMSO, diluted to varying concentrations in PARP assay buffer, and 10 μL was added to each well. To initiate the reaction, 10 μL of 10 μg/mL PARP-1 enzyme in PARP assay buffer was added to each well. The total volume was 50 μL, bringing the final concentrations to 2 μg/mL PARP-1 enzyme, 10 μg mL activated DNA, and 100 nM NAD^+ per well. The plate was then incubated at room temperature for 20 min. The amount of NAD^+ present was then determined by first adding 20 μL 2 M KOH, followed by 20 μL of 20% acetophenone (in ethanol) to each well."}, "[1]": {"tested_on": "head and neck cell lines SCC1 and SCC25", "assay": "[18F]WC-4-138 uptake in cell culture, head and neck lines", "assay_type": "cell-based", "conditions": "10 μM drug prior to incubation with tracer", "description": "In these experiments, the head and neck squamous cell carcinoma lines SCC1, SCC15, and SCC25 (ATCC) were propagated in Dulbecco's Modified Eagle's Medium (DMEM, Gibco) supplemented with 10% Fetal Bovine Serum (FBS, Gibco), Penicillin-Streptomycin (P/S, Gibco), and 100 ng/ml hydrocortisone (Sigma-Aldrich). The small cell lung cancer lines NCI-h69 and NCI-h82 (ATCC) were propagated m RPMI Medium (Gibco) supplemented with 10% FBS and 1% P/S. The human breast cancer cell line MDA-MB-231 (ATCC) was propagated in Eagle's Minimum Essential Medium (Gibco) supplemented with 5% FBS, 2% Vitamins for MEM (Gibco), 1% 200 mM L-glutamine (Gibco), 1% 10 mM Non-Essential Amino Acid (NEAA, Gibco).\nFor each experimental replicate, approximately 1 μCi of [^18F]WC-4-138 was diluted in 1 ml of cell culture medium and added to 10^6 cells. After 5, 30, or 60 minutes, the medium was collected and cells were washed twice in 0.7 ml Phosphate Buffered Saline (PBS, Gibco). Adherent cells were collected by scraping the cell culture dish and transferring to a microfuge tube. Radioactivity was measured in the collected medium, PBS, or cell pellets. Protein from the cell pellet was quantified using a […]. All data were decay-corrected and normalized to total protein quantity in the cell pellet. For drug treatment studies, cells were incubated with 10 μM Olaparib or Iniparib twenty-hours prior to incubation with [^18F]WC-4-138.\nThe head and neck cell lines SCC1 and SCC25 constitutively take up small amounts of tracer, registering as 0.001-0.002 μCi/μg in the cell pellet (FIG. 5A). […] Radioactivity was measured in head and neck squamous cell cancer (HNSCC) lines (SCC1 and SCC25) or small cell lung cancer (SCLC) lines (NCI-h69 and NCI-h82) after incubation with [^18F]WC-4-138 for 5, 30, or 60 minutes (n=3 at each time point). […] PARP activity was measured in HNSCC or lung SCLC cells. (FIG. 5C-D) [^18F]WC-4-138 uptake was measured in HNSCC cell lines treated with olaparib or iniparib. […]"}, "MDA-MB-436 tumors": {"tested_on": "MDA-MB-436 tumors", "assay": "microPET imaging with [18F]12, MDA-MB-436 xenograft tumors", "assay_type": "in vivo, mice", "conditions": "olaparib 50 mg/kg i.p. or 12 1 mg/kg i.p., 20 min prior to tracer", "description": "(§1) This example illustrates the visualization of tumor tissue in microPET in mice. MDA-MB-436 human breast cancer xenograft tumors in immune-deficient mice were visualized by PET using [^18F]12.\nMDA-MB-436 and MDA-MB-231 human breast cancer cells were maintained in cell culture under standard conditions with 5% CO2 atmosphere using Eagle's minimum essential medium (with Earle's balanced salt solution and 2 mM L-glutamine) supplemented with 2 mM E-glutamine, 1 mM sodium pyruvate, 0.1 mM non-essential amino acids 2% vitamins for MEM, and 5% fetal bovine serum. Cells in exponential growth were trypsinized and harvested for tumor implantation. After counting, cells were re-suspended in ice-cold 1:1 Matrigel and PBS to give the desired concentration and held on ice.\nMature female athymic nu/nu mice from Charles River Laboratories are allowed to acclimate in an AALAC accredited housing facility for at least 1 week prior to tumor implantation for these serial imaging studies. Female nu/nu mice were implanted in the mammary fat pads (near the auxiliary lymph nodes) with ˜8×10^6 MDA-MB-436 breast cancer cells in ˜100 μL of 1:1 Matrigel:PBS. Imaging studies were conducted 2-3 weeks post implantation.\n(§2) Tumor-bearing mice were placed in an induction chamber containing ˜2% isoflurane/oxygen and then secured to a custom double bed for placement of tail vein catheters; anesthesia was maintained via nose-cone at ˜1% isoflurane/oxygen for the dynamic imaging procedure. The mice were injected with 150-200 μCi of [^18F]12 and scanned for 0-60 min using Focus 220 and Inveon PET/CT scanners. The standard uptake values (SUVs) were generated from manually drawn regions of interests for tumors and surrounding ‘background’ tissue. Visualization of specific uptake was determined by comparison of baseline scans with images acquired by tracer injection 20 minutes after pre-treatment with the blocking agents olaparib (50 mg/kg, IP) or 12 (1 mg/kg, IP)."}, "SCC1 tumors": {"tested_on": "SCC1 tumors", "assay": "microPET imaging with [18F]WC-4-138, SCC1 tumors", "assay_type": "in vivo, mice", "conditions": "30 minutes after IP injection, paired t test", "text": "This example illustrates uptake of Compound 12 ([^18F]WC-4-138) in mice. Mature female athymic nude mice (Charles River Laboratories) were implanted with 10^6 SCC1 cells or 10^7 MDA-MB-231 cells into the mammary fat pads. Mice bearing SCC1 tumors were imaged at 5 weeks and mice bearing MDA-MB-231 cells were imaged at 2.5 weeks after implant. Mice were anesthetized with 2% isoflurane/oxygen and maintained at 1% isoflurane/oxygen via nose cone throughout the imaging procedure. Whole animal microCT images were acquired on an Inveon PET/CT scanner. The mice were injected via tail vein with 11.36±0.5 MBq (307±13 μCi) of [^18F]WC(4)-138 and underwent a 60 minute dynamic scan using Focus 220 or Inveon PET/CT scanners. The microPET and microCT images were coregistered using Integrated Research Workflow software (Siemens). Regions of interest were drawn over tumors to determine time activity curves. For drug treatment studies, animals reached intraperitoneal injections of 50 mg/kg olaparib or iniparib 30 minutes before imaging. […]\n(§3) In FIG. 8, mice were imaged at baseline, or 30 minutes after IP injection of olaparib or iniparib. (A) The percent of injected dose per ml was calculated for each MDA/MB-231 tumor at baseline or after drug treatment. […] Tracer uptake was unchanged in iniparib-treated mice (p=0.1098 as determined by a paired t test, n=6 tumors)."}, "MDA-MB-231 tumors": {"tested_on": "MDA-MB-231 tumors", "assay": "microPET imaging with [18F]12, MDA-MB-231 tumors", "assay_type": "in vivo, mice", "conditions": "for effect of drug treatment on tracer uptake outside the tumor (microPET images): MDA-MB-231 tumor-bearing mice; for effect of drug treatment on tracer uptake outside the tumor (microPET images) / effect of drug treatment on tumor uptake of tracer (microPET images): 50 mg/kg IP 30 minutes before imaging; for effect of drug treatment on tumor uptake of tracer (microPET images) / tracer uptake, percent of injected dose per ml, after drug treatment vs baseline: MDA-MB-231 tumors; for tracer uptake, percent of injected dose per ml, after drug treatment vs baseline: 30 minutes after IP injection, paired t test", "description": "as §1, §2\nThis example illustrates uptake of Compound 12 ([^18F]WC-4-138) in mice. Mature female athymic nude mice (Charles River Laboratories) were implanted with 10^6 SCC1 cells or 10^7 MDA-MB-231 cells into the mammary fat pads. Mice bearing SCC1 tumors were imaged at 5 weeks and mice bearing MDA-MB-231 cells were imaged at 2.5 weeks after implant. Mice were anesthetized with 2% isoflurane/oxygen and maintained at 1% isoflurane/oxygen via nose cone throughout the imaging procedure. Whole animal microCT images were acquired on an Inveon PET/CT scanner. The mice were injected via tail vein with 11.36±0.5 MBq (307±13 μCi) of [^18F]WC(4)-138 and underwent a 60 minute dynamic scan using Focus 220 or Inveon PET/CT scanners. The microPET and microCT images were coregistered using Integrated Research Workflow software (Siemens). Regions of interest were drawn over tumors to determine time activity curves. For drug treatment studies, animals reached intraperitoneal injections of 50 mg/kg olaparib or iniparib 30 minutes before imaging. Mice were imaged at baseline, or 30 minutes after IP injection of olaparib or iniparib. Arrows indicate location of tumors as identified on CT.\nas §3"}, "[2]": {"conditions": "read-out: IC50 (nM), inhibition of PARP-1, mean ± SD, at least three independent experiments"}}, "note": "“Also recorded” adds a separate entry of the source. Like-named read-outs stand apart in the source and are kept apart here.", "data": [{"smiles": "C#CCOc1ccc(-c2nc3c(C(N)=O)cccc3[nH]2)cc1", "note": "[Compound 9, 2-(4-(Prop-2-ynloxy)phenyl)-1H-benzo[d]imidazole-4-carboxamide]", "values": [{"measurement": "IC50", "setting": "PARP-1; [2]", "result": "25.8 ± 3.3", "unit": "nM"}]}, {"smiles": "O=C1NCCn2c(-c3ccc(OCc4cn(CCF)nn4)cc3)nc3cccc1c32", "note": "[Compound 15, 5,6-Dihydro-2-(4-((1-(2-fluoroethyl)-1H-1,2,3-triazol-4-yl)methoxy)phenyl)-imidazo[4,5,1-jk][1,4]benzodiazepin-7(4H)-one]", "values": [{"measurement": "IC50", "setting": "PARP-1; [2]", "result": "22.1 ± 6.3", "unit": "nM"}]}, {"smiles": "O=C(c1cc(Cc2n[nH]c(=O)c3ccccc23)ccc1F)N1CCN(C(=O)C2CC2)CC1", "note": "[olaparib]", "values": [{"measurement": "effect of drug on [18F]WC-4-138 uptake in HNSCC cell lines", "setting": "[1]", "result": "abolished"}, {"measurement": "effect of pretreatment on [18F]12 uptake in MDA-MB-436 tumors", "setting": "MDA-MB-436 tumors", "result": "decreased [^18F]12 uptake in the tumors to the background tissue activity levels; also recorded: significantly decreased [^18F]12 uptake; also recorded: blocked"}, {"measurement": "effect of pretreatment on [18F]12 uptake in MDA-MB-436 tumors", "setting": "MDA-MB-436 tumors; listed as olaparib/AZD2281", "result": "blocked"}, {"measurement": "tracer uptake, percent of injected dose per ml, after drug treatment vs baseline", "setting": "SCC1 tumors", "result": "significantly reduced"}, {"measurement": "effect of drug treatment on tracer uptake outside the tumor (microPET images)", "setting": "MDA-MB-231 tumors", "result": "tracer is still present in other areas of the section"}, {"measurement": "effect of drug treatment on tumor uptake of tracer (microPET images)", "setting": "MDA-MB-231 tumors", "result": "abolished"}, {"measurement": "tracer uptake, percent of injected dose per ml, after drug treatment vs baseline", "setting": "MDA-MB-231 tumors", "result": "significantly reduced"}, {"measurement": "effect of pretreatment on [18F]12 uptake in MDA-MB-231 tumor", "setting": "MDA-MB-231 tumors; i.p. 50 mg/kg, 20 min pretreatment", "result": "decreased [^18F]12 uptake"}]}, {"smiles": "NC(=O)c1ccc(I)c([N+](=O)[O-])c1", "note": "[iniparib]", "values": [{"measurement": "effect of drug on [18F]WC-4-138 uptake in HNSCC cell lines", "setting": "[1]", "result": "not"}, {"measurement": "tracer uptake, percent of injected dose per ml, after drug treatment vs baseline", "setting": "SCC1 tumors", "result": "unchanged"}, {"measurement": "effect of drug treatment on tracer uptake outside the tumor (microPET images)", "setting": "MDA-MB-231 tumors", "result": "abolishes said uptake in other types of cells"}, {"measurement": "effect of drug treatment on tumor uptake of tracer (microPET images)", "setting": "MDA-MB-231 tumors", "result": "does not effect the uptake"}, {"measurement": "tracer uptake, percent of injected dose per ml, after drug treatment vs baseline", "setting": "MDA-MB-231 tumors", "result": "unchanged"}]}, {"smiles": "NC(=O)c1cccc2[nH]c(-c3ccc(OCCF)cc3)nc12", "note": "[Compound 8, 2-(4-(2-Fluoroethoxy)phenyl)-1H-benzo[d]imidazole-4-carboxamide]", "values": [{"measurement": "IC50", "setting": "PARP-1; read-out: IC50, inhibition of PARP-1, unit inferred", "result": 10.8, "unit": "nM"}]}, {"smiles": "O=C1NCCn2c(-c3ccc(OCCF)cc3)nc3cccc1c32", "note": "[Compound 12, 5,6-Dihydro-2-(4-(2-fluoroethoxy)phenyl)-imidazo [4,5,1-jk][1,4]benezodiazepin-7(4H)-one]", "values": [{"measurement": "IC50", "setting": "PARP-1", "result": 63, "unit": "nM"}]}, {"smiles": "C#CCOc1ccc(-c2nc3cccc4c3n2CCNC4=O)cc1", "note": "[Compound 13, 5,6-Dihydro-2-(4-(prop-2-ynyloxy)phenyl)-imidazo[4,5,1-jk][1,4]benzodiazepine-7(4H)-one]", "values": [{"measurement": "IC50", "setting": "PARP-1; [2]", "result": "18.7 ± 2.7", "unit": "nM"}]}]}
